Source: paper PMC3154276, “The Effect of the Potential PhoQ Histidine Kinase Inhibitors on Shigella flexneri Virulence” (PLoS ONE, 2011)

Key:
Assay type in all cases: cell-based
[1] = Erythrocyte hemolysis assay; settings: human erythrocytes (5% suspension), healthy human erythrocytes
Description: The hemolytic activity of the potential PhoQ inhibitors was determined using human erythrocytes. The erythrocytes were washed three times with sterile saline and resuspended to 5% cell concentration prior to assay. Then, 200 µl erythrocyte suspensions containing 25 µmol/L or 100 µmol/L concentrations of each potential PhoQ inhibitors were added in triplicate to the wells of the 96-well microtiter plates. Cells without potential PhoQ inhibitors treatment or with 1% Triton-100 treatment were used as the zero or 100% hemolysis control, respectively. The cell suspensions were incubated for 1 hour at 37°C and centrifuged for 10 minutes at 1200×g. Supernatants (100 µl) were transferred to another sterile plate, and the released hemoglobin was measured absorbance readings at 570 nm. […] The hemolysis assay was repeated twice.

[2] = system: Salmonella enterica Typhimurium SL1344; test: Salmonella cell invasion assay (gentamicin protection, HeLa cells); settings: for cell invasion rate of Salmonella enterica Typhimurium SL1344: HeLa cells, untreated Salmonella 6×10^−2; for effect on cell invasion of Salmonella SL1344 (words, discussion): Figure 7, concentration not restated
Description: The effects of potential PhoQ inhibitors on cell invasion of Salmonella were determined by gentamicin protection assay.
Figure 7 The effects of potential PhoQ inhibitors on cell invasion of Salmonella. […] The bacteria pre-treated with potential PhoQ inhibitor were added to HeLa cells at a multiplicity of infection of 100. Then gentamicin was added to kill extracellular bacteria and cell lysates were plated onto LB plates, and the colonies were counted. The results of the assays were expressed as the number of bacteria recovered from gentamicin-treated cells divided by the number of inoculated bacteria added to the cell. Salmonella enterica typhimurium SL1344 served as the positive control for the cell invasion assay; E. coli ATCC 25922 (treated without DMSO), an avirulent strain, served as the negative control for the cell invasion assay; bacteria treated with 0.1% DMSO also served as a control for the cell invasion assay. Values are means ± standard deviations from 6 independent wells. *p<0.01 vs. SL1344.
The gentamicin protection assay was used as a cellular model to evaluate the inhibitory effect of the four potential PhoQ inhibitors. Salmonella enterica typhimurium SL1344 was treated with each of the four potential PhoQ inhibitors (final concentrations: potential PhoQ inhibitor 1 was 12.5 µmol/L, 2 was 25 µmol/L, 3 was 100 µmol/L and 4 was 100 µmol/L) and grown for 8 hours. The bacteria pre-treated with potential PhoQ inhibitor without washing, were added to HeLa cells at a multiplicity of infection of 100, at the same time the bacteria were diluted and plated onto LB agar plates. The CFUs were counted as initial bacterial number before added into HeLa cells. Next, the bacteria were inoculated to HeLa cells and incubated with for 60 minutes prior to the addition of gentamicin to kill extracellular bacteria. After the incubation, the HeLa cells in each well were lysed in 1 ml of PBS containing 0.1% Triton X-100 for 10 minutes at room temperature. The lysates were diluted and plated onto LB agar plates in triplicate. Colonies grown on LB plates were counted. The results of the assays were expressed as the number of bacteria recovered from gentamicin-treated cells divided by the number of inoculated bacteria added to the cell. After lysates of HeLa cells were plated, the number of CFU that formed on LB agar were counted. The cells were inoculated with untreated SL1344 (treated without DMSO) as a positive control and E. coli ATCC 25922, an avirulent strain treated without DMSO, as a negative control. SL1344 was treated with the same amount of 0.1% DMSO as the other groups to control for any DMSO-specific effects. The cell invasion assay was performed in triplicate for each potential PhoQ inhibitor, and the assay was repeated twice.

S. flexneri Sf9380 = test: Gentamicin protection assay, HeLa cell invasion by Sf9380; settings: for invasion of HeLa cells by Sf9380 (bacteria recovered / inoculated): bacteria pre-treated 8 hours, untreated Sf9380 5.87×10^−2
Description: The growth curve of Sf9380 treated with or without potential PhoQ inhibitors at concentration 200 µmol/L were tested. […] The gentamicin protection assay was used as a cellular model to evaluate the inhibitory effect of the four potential PhoQ inhibitors. The bacteria were treated with each of the four potential PhoQ inhibitors in a serial dilution and grown for 8 hours. Next, the bacteria were inoculated and incubated with HeLa cells for 60 min prior to the addition of gentamicin to kill extracellular bacteria. For testing intracellular growth and spreading to adjacent cell, cells were further incubated for 290 min [9]. The results of the assays were expressed as the number of bacteria recovered from gentamicin-treated cells divided by the number of inoculated bacteria added to the cell. After lysates of HeLa cells were plated, the number of CFU that formed on LB agar were counted.
Figure 6 The effects of potential PhoQ inhibitors on virulence of Shigella. […] The bacteria pre-treated with potential PhoQ inhibitor were added to HeLa cells at a multiplicity of infection of 100. Then gentamicin was added to kill extracellular bacteria and cell lysates were plated onto LB plates, and the colonies were counted. The results of the assays were expressed as the number of bacteria recovered from gentamicin-treated cells divided by the number of inoculated bacteria added to the cell. S. flexneri Sf9380 (treated without DMSO), a clinical strain with strong virulence, served as the positive control for the cell invasion assay; E. coli ATCC 25922 (treated without DMSO), an avirulent strain, served as the negative control for the cell invasion assay; bacteria treated with 0.1% DMSO (the solvent of the potential PhoQ inhibitor) also served as a control for the cell invasion assay. Values are means ± standard deviations from 6 independent wells. *p<0.01 vs. Sf9380. (A) The effects of potential PhoQ inhibitors on cell invasion of S. flexneri Sf9380 (B) The effects of potential PhoQ inhibitors on intracellular growth S. flexneri Sf9380. (C) The effects of potential PhoQ inhibitors on cell invasion of S. flexneri 2a 301 phoQ/phoP knock-out mutant.
Bacterial ability to invade HeLa cells was tested with a gentamicin protection assay. HeLa cells were grown in six-well tissue culture plates to semi-confluent monolayers (DMEM, 10% FCS, 5% CO2). Sf9380 or Sf301 ΔphoQ/phoP was treated with potential PhoQ inhibitors for 8 hours in LB at 37°C (final concentrations of 100,50,25,12.5 or 6.25 µmol/L) prior to infection. The bacteria pre-treated with potential PhoQ inhibitor without washing, were added to semi-confluent HeLa cells at a multiplicity of infection of 100, at the same time the bacteria were diluted and plated onto LB agar plates. The CFUs were counted as initial bacterial number before added into HeLa cells. Then the plates were centrifuged at 900×g for 5 minutes. After incubating at 37°C for 60 minutes (For testing intracellular growth and spreading to adjacent cell, cells were further incubated for 290 min [9].), the cells were washed three times with PBS, and gentamicin was added to the medium to a final concentration of 10 µg/ml for 20 minutes at 37°C. After the incubation, the HeLa cells in each well were lysed in 1 ml of PBS containing 0.1% Triton X-100 for 10 minutes at room temperature. The lysates were diluted and plated onto LB agar plates in triplicate. Colonies grown on LB plates were counted. The results of the assays were expressed as the number of bacteria recovered from gentamicin-treated cells divided by the number of inoculated bacteria added to the cell. The cells were inoculated with untreated Sf9380 or Sf301 ΔphoQ/phoP (treated without DMSO) as a positive control and E. coli ATCC 25922, an avirulent strain treated without DMSO, as a negative control. […]

| Structure (SMILES) | hemolysis at 1 h, 25 µmol/L [1] [%] | hemolysis at 1 h, 100 µmol/L [1] [%] | times lower invasion than the control, SL1344 ([2]; 12.5 µmo/L) [times] | cell invasion rate of Salmonella enterica Typhimurium SL1344 ([2]; 12.5 µmo/L) | effect on cell invasion of Salmonella SL1344 (words, discussion) [2] | times lower invasion than untreated Sf9380 (S. flexneri Sf9380; 12.5 µmo/L, HeLa cells) [times] | invasion of HeLa cells by Sf9380 (bacteria recovered / inoculated) (S. flexneri Sf9380; 12.5 µmo/L) | effect on invasion of HeLa cells by Sf9380 (S. flexneri Sf9380; concentrations lower than 12.5 µmo/L) | times lower invasion than the control, SL1344 ([2]; 25 µmo/L) [times] | cell invasion rate of Salmonella enterica Typhimurium SL1344 ([2]; 25 µmo/L) | times lower invasion than the control (S. flexneri Sf9380; 25 µmo/L, HeLa cells) [times] | effect on invasion of HeLa cells by Sf9380 (S. flexneri Sf9380; concentrations lower than 25 µmo/L) | times lower invasion than the control, SL1344 ([2]; 100 µmo/L) [times] | cell invasion rate of Salmonella enterica Typhimurium SL1344 ([2]; 100 µmo/L) | invasion of HeLa cells by Sf9380 (bacteria recovered / inoculated) (S. flexneri Sf9380; 100 µmo/L) | effect on invasion of HeLa cells by Sf9380 (S. flexneri Sf9380; concentrations lower than 100 µmo/L) | effect on cell invasion of SL1344 ([2]; 100 µmo/L) | effect on invasion of HeLa cells by Sf9380 (S. flexneri Sf9380; 100 µmo/L) |
| --- | --- | --- | --- | --- | --- | --- | --- | --- | --- | --- | --- | --- | --- | --- | --- | --- | --- | --- |
| O=C(Nc1ccc(C2(c3cccc(NC(=O)c4cccc5ccccc45)c3)c3ccccc3C(=O)c3ccccc32)cc1)c1ccc2ccccc2c1 [Compound 1] | < 0.1 | < 0.1 | 6.74 | 0.89×10^−2 | inhibited | 4.3 | 1.36×10^−2 | no obvious effects |  |  |  |  |  |  |  |  |  |  |
| CCOc1ccccc1-c1cc(C(=O)N/N=C/c2ccc(OCc3ccccc3)c(OC)c2)c2ccccc2n1 [Compound 2] | < 0.1 | < 0.1 |  |  | inhibited |  |  |  | 3.84 | 1.564×10^−2 | 16.3 | no obvious effects |  |  |  |  |  |  |
| O=C(O)c1ccc(Cl)c(-c2ccc(/C=N/NC(=O)c3ccc(Br)cc3)o2)c1 [Compound 3] | < 0.1 | < 0.1 |  |  | inhibited |  |  |  |  |  |  |  | 166 | 0.036×10^−2 | 1.95×10^−2 | no obvious effects |  |  |
| O=C(O)c1cc(-c2ccc(-c3ccccc3Cl)o2)nc2ccc3ccccc3c12 [Compound 4] | < 0.1 | < 0.1 |  |  | no obvious effect |  |  |  |  |  |  |  |  | 5.7×10^−2 |  |  | no obvious effect | no effect |
